In patent US20100016242A1, “MYOSIN LIGHT CHAIN KINASE INHIBITORS AND METHODS OF USE” (THE UNIVERSITY OF CHICAGO, priority 2004, published 2010):

What was measured:
[1] = stability in rat intestinal fluid (LC-MS); assay type: in vitro ADME
Procedure: (§1) Peptides administered in vivo are susceptible to protease cleavage, particularly those administered to the intestine. PIK, D-PIK, D-PIK(reversed) and D-PIK(int.) were each incubated with rat intestinal fluid and also with Caco-2 intestinal epithelial cell extracts, which contain a mixture brush border and cytosolic proteases. Luminal intestinal secretions were obtained by flushing isolated rat intestines (duodenum to ileum) with 10 ml of 20 mM of N-2-Hydroxyethylpiperazine-N′-2-ethanesulfonic acid (HEPES) buffer, pH 7.4. Discharged contents were centrifuged to remove solids and the supernatant filtered through a 0.20 μm filter prior to determining total protein content. Confluent Caco-2 cells were rinsed with PBS, lifted by brief trypsin treatment into a small volume of Dulbecco's modified Eagles's medium (DMEM) and washed twice with phosphate buffered saline (PBS). The final cell pellet was re-suspended in a small volume of lysis buffer (50 mM Tris-HCL, 2 mM EDTA, 20% glycerol at pH 7.4) and sonicated on ice. Protein concentrations of isolated intestinal fluid and lysed Caco-2 cell extracts were determined using the Bio-Rad Protein Assay. Peptide inhibitors of MLCK (1 mg/ml) in PBS were mixed with 0.1 mg protein of intestinal secretions or Caco-2 cell lysate on ice and incubated for at 4° C. and 37° C., respectively. At selected times, 100 μl aliquots were withdrawn and mixed with an equal volume of 0.5% TFA (in 50/50 water/acetonitrile) to terminate enzymatic reactions. Samples were centrifuged and supernatants analyzed by LC-MS analysis to determine the cleavage pattern of PIK.
(§2) Residual peptide content was assessed by liquid chromatography-mass spectrometry (Tiller et al., Anal Bioanal Chem 2003; 377:788-802) and positive ion electrospray ionization.
The peptides listed in Table 2 (0.1 mg) were incubated with rat intestinal fluid (0.2 mg) at 37° C. for 0.5 min to 6 hours.

[2] = stability in Caco-2 intestinal epithelial cell extracts (LC-MS); assay type: in vitro ADME; conditions: Caco-2 cell extracts
Procedure: as §1, with “The final cell pellet was re-suspended in a small volume of lysis buffer (50 mM Tris-HCL, 2 mM EDTA, 20% glycerol at pH 7.4) and sonicated on ice.” left out, “Peptide inhibitors of MLCK (1 mg/ml) in PBS were mixed with 0.1 mg protein of intestinal secretions or Caco-2 cell lysate on ice and incubated for at 4° C. and 37° C., respectively. At selected times, 100 μl aliquots were withdrawn and mixed with an equal volume of 0.5% TFA (in 50/50 water/acetonitrile) to terminate enzymatic reactions.” left out
as §2

half-life ([1]; 0.1 mg peptide, rat intestinal fluid (0.2 mg), 37° C.): 12 s
hydrolysis on extended incubation ([1]; rat intestinal fluid, extended incubations): total hydrolysis
Substance: Ac-RKKYKYRRK-NH2 [PIK, Arg-Lys-Lys-Tyr-Lys-Tyr-Arg-Arg-Lys]
initial cleavage pattern ([1]; rat intestinal fluid): peptide bonds at the C-terminal sides of K and R residues of PIK were initially cleaved
cleavage pattern [2]: cleaved PIK across the central palindromic sequence
